Data set [1] in a line: Growth inhibition of human KB cells at 10 ug/ml. The format is cell-based. The conditions noted are these: read-out: GI.
Data set [2] is described as follows: Inhibition of Bovine diarrhea virus NS5 polymerase-mediated RNA synthesis expressed in Escherichia coli Rosetta pLac1 cells assessed as [3H]GTP incorporation after 5 mins by scintillation counting. The arrangement: species or system Bovine viral diarrhea virus 1.
Data set [3] in a line: Inhibition of Dengue virus 2 NS5 polymerase-mediated RNA synthesis expressed in Escherichia coli Rosetta pLac1 cells assessed as [3H]GTP incorporation after 5 mins by scintillation counting. The arrangement: species or system dengue virus type 2.
A further data set concerns KB. The data set is described as follows: Cytotoxicity against human KB cells. The format is cell-based.

For `O=C(O)CCC[C@@H](/C=C/c1ccccc1)c1c(O)cc2c(c1O)C(=O)C[C@H](c1ccccc1)O2`, the inhibition at 10 ug/ml in data set [1] is 11%. In addition, the IC50 in data set [2] is over 50 µM; in data set [3] (read-out: IC50) it was 9 µM.
For `O=C(O)CCC[C@H](/C=C/c1ccccc1)c1c(O)cc2c(c1O)C(=O)C[C@H](c1ccccc1)O2`, in data set [1], the inhibition at 10 ug/ml amounted to 0%. Also, the IC50 is over 50 µM in data set [2] and 15.3 µM in data set [3] (read-out: IC50).
Take `Nc1nc2c(ncn2[C@@H]2O[C@H](COP(=O)(O)OP(=O)(O)OP(=O)(O)O)C[C@H]2O)c(=O)[nH]1`: the IC50 in data set [2] is under 1 µM; in data set [3] (read-out: IC50) it was 0.02 µM.
For the compound `O=C(O)CCCC(/C=C/c1ccccc1)c1c(O)c2c(c(C(/C=C/c3ccccc3)CCCC(=O)O)c1O)OC(c1ccccc1)CC2=O` (racemic), the inhibition at 10 ug/ml in data set [1] turned out to be 0%. Further, the figures for the IC50 in data set [2] and in data set [3] (read-out: IC50) were over 50 µM and 2.4 µM, respectively.
With `O=C(O)CCC/C=C/C(c1ccccc1)c1c(O)c(C(/C=C/c2ccccc2)CCCC(=O)O)c(O)c2c1OC(c1ccccc1)CC2=O` (racemic), in data set [1], the inhibition at 10 ug/ml is 0%. Besides, the IC50 in data set [2] was over 50 µM; in data set [3] (read-out: IC50), 2.9 µM.
Taken in the same sequence, the figures for `O=C(O)CCC/C=C/C(c1ccccc1)c1c(O)c2c(c(C(/C=C/c3ccccc3)CCCC(=O)O)c1O)OC(c1ccccc1)CC2=O` (racemic) were 0%, over 50 µM and 1.8 µM.
On to `O=C(O)CCC/C=C/C(c1ccccc1)c1c(O)c2c(c(C(/C=C/CCCC(=O)O)c3ccccc3)c1O)OC(c1ccccc1)CC2=O` (racemic), for which the inhibition at 10 ug/ml in data set [1] came out at 0%. Besides, the IC50 in data set [2] was over 50 µM; in data set [3] (read-out: IC50) it was 4.2 µM.
With `O=C(O)CCC/C=C/C(c1ccccc1)c1c(O)cc2c(c1O)C(=O)CC(c1ccccc1)O2` (racemic), the inhibition at 10 ug/ml in data set [1] was 0%. For the same compound, the values for the IC50 in data set [2] and in data set [3] (read-out: IC50) were over 50 µM and 72.5 µM, respectively.
As for `O=C(O)CCCC(/C=C/c1ccccc1)c1c(O)cc2c(c1O)C(=O)CC(c1ccccc1)O2` (racemic), the inhibition at 10 ug/ml in data set [1] came to 3.2%. Further, the IC50 in data set [2] is over 50 µM; in data set [3] (read-out: IC50), 14.8 µM.
Take `O=C(O)CCC[C@H](/C=C/c1ccccc1)c1c(O)cc2c(c1O)C(=O)C[C@@H](c1ccccc1)O2` [CHARTACEONE A3]: the inhibition at 10 ug/ml in data set [1] came to 0%. For the same compound, the IC50 in data set [2] is over 50 µM; in data set [3] (read-out: IC50) it was 27 µM.
As to `O=C(O)CCC[C@@H](/C=C/c1ccccc1)c1c(O)cc2c(c1O)C(=O)C[C@@H](c1ccccc1)O2` [CHARTACEONE A4], the inhibition at 10 ug/ml in data set [1] came out at 6%. In addition, the figures for the IC50 in data set [2] and in data set [3] (read-out: IC50) were over 50 µM and 7.4 µM, respectively.
The compound `CC(=O)O[C@@]12CO[C@@H]1C[C@H](O)[C@@]1(C)C(=O)[C@H](O)C3=C(C)[C@@H](OC(=O)[C@H](O)[C@@H](NC(=O)OC(C)(C)C)c4ccccc4)C[C@@](O)([C@@H](OC(=O)c4ccccc4)[C@H]21)C3(C)C` [DOCETAXEL] gave an IC50 in the data set on KB of 0.015 µM.
Turning to `O=C1C[C@@H](c2ccccc2)Oc2cc(O)cc(O)c21` [PINOCEMBRIN], the inhibition at 10 ug/ml in data set [1] came to 0%. The IC50 entry in data set [3] is “Not Active”.

As usually defined, the IC50 is the concentration at which inhibition is half-maximal.

(Values after ChEMBL document CHEMBL1938341, “Alkylated flavanones from the bark of Cryptocarya chartacea as dengue virus NS5 polymerase inhibitors” (J Nat Prod, 2011).)
